Laboratory results from publication PMC12368479, “Inhibition of the Clathrin Terminal Domain—Amphiphysin Protein–Protein Interaction. Probing the Pitstop 2 Aromatic Moiety” (Chemmedchem, 2025).
Read-outs that look alike come from different tables or passages of the source. Each block holds one molecule with its values, some of them ahead of it.

Assays:
[1] = system: transferrin uptake (CME) in U2OS osteosarcoma cells; assay: Clathrin-mediated endocytosis assay: transferrin (Tfn) uptake in U2OS cells; type: cell-based; settings: for CME activity compared with Pitstop 2: in words; for inhibition at 5 µM: read-out: 2-point CME (% Inhibition) 5 µM
Description: Using our previously reported CME assay in U2OS cells, the ability of these compounds to block endocytosis was examined (Table 5 ).^[ [48], [49] ^]
CME was examined by a high‐throughput, quantitative assay for measuring transferrin (Tfn) uptake in U2OS osteosarcoma cells, based on methods described previously.^[ [48] ^]
Compounds were made up fresh from powder stock just prior to commencing the assay, and stock solutions were stored at −20 °C for several months.

[2] = target: T1, full length human Dynamin I (Homo sapiens, UniProt Q05193); assay: Dynamin GTPase activity, Malachite Green phosphate detection assay; type: biochemical
T1 construct: full length human Dynamin I expressed in Sf21 insect cells; made in house; host or cells: Sf21 insect cells
T1 sequence (Q05193 1-864): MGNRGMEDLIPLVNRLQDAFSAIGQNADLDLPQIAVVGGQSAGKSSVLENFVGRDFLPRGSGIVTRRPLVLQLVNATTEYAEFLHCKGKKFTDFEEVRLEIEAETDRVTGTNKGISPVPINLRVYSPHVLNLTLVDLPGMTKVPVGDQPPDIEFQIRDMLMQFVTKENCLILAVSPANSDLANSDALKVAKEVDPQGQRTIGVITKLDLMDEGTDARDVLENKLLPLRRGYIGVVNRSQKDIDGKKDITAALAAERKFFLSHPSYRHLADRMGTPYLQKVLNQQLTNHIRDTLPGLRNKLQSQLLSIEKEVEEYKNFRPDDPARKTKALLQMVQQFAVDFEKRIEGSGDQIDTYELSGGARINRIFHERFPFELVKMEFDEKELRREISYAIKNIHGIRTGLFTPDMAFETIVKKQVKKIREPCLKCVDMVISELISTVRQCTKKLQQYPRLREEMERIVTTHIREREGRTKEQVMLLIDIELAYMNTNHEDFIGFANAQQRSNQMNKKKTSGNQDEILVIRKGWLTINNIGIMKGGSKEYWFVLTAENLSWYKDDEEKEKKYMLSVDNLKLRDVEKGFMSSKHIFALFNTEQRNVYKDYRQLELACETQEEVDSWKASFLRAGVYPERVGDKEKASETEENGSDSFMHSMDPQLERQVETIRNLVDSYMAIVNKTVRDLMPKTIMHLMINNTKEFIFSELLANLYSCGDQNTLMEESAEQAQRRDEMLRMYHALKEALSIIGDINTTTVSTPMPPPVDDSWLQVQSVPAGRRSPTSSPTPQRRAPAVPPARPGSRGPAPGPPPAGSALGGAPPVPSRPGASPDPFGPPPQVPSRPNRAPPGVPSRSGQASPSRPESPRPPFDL
Description: Dynamin GTPase activity was determined in vitro using the Malachite Green phosphate detection absorbance‐based assay within a 96‐well plate format as described previously. The enzyme source was full length human Dynamin I expressed in Sf21 insect cells and affinity‐purified on GST‐Amph2‐SH3 (rat Amphiphysin 2 (494–588)).^[ [56] ^]

[3] = target: T2, clathrin heavy chain NTD (amino acids 1–364) – amphiphysin 1 B/C domain protein–protein interaction (NTD‐PPI) (Homo sapiens, UniProt Q00610); assay: ELISA-based clathrin inhibitor binding assay (NTD-PPI)
T2 construct: GST‐tagged clathrin heavy chain NTD (amino acids 1–364); made in house
T2 sequence (Q00610 1-364): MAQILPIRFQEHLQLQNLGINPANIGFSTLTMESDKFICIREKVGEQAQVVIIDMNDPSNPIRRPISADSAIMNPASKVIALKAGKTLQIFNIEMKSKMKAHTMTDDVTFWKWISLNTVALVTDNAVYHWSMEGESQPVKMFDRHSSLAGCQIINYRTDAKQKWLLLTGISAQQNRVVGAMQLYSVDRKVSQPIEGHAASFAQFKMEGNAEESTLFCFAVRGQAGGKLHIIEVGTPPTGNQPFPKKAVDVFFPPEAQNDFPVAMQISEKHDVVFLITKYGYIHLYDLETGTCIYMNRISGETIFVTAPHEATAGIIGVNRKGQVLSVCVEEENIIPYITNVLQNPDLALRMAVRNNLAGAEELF
Description: The clathrin inhibitor assay was based inhibition of protein–protein interaction (PPI) between clathrin and amphiphysin as described in our previous report.^[ [45], [54] ^] Bacterially expressed recombinant purified His6‐tagged amphiphysin 1 B/C domain (which comprises both the clathrin and the AP‐2 binding sites, amino acids 250‐578^[ [55] ^]) in screening buffer (20 mM HEPES, pH 7.4, 50 mM NaCl, 1 mM DTT, 1 mM PMSF) was added to a 384 well ELISA plate (Corning Maxisorp 3700) and bound to the plastic for 1 h at room temperature. […] Following extensive washes (with 20 mM HEPES, pH 7.4, 50 mM NaCl, 0.05% Tween 20), chemical compounds diluted in DMSO (10 μL) were added and incubated together with bacterially expressed recombinant GST‐tagged clathrin heavy chain NTD (amino acids 1–364) for 1 h at room temperature in screening buffer. After 3 washes, horseradish peroxidase‐coupled anti‐GST antibodies were added in screening buffer and the plate incubated for 40 min at room temperature. Following additional washes, 50 μL TMB (3,3′,5,5′‐tetramethylbenzidine) (Pierce Biotechnology) chromogenic substrate of horseradish peroxidase was added, and the plate was incubated for 10 min before the reaction was terminated by adding 50 μL 1N sulfuric acid to produce a yellow colour. The amount of bound protein was determined by spectrophotometric measurement in a plate reader. Relative binding was calculated as a percentage of DMSO control.

[4] = Homo sapiens, U2OS, Table 5, inhibition of transferrin‐red uptake in U2OS cells, '–'/NA = not active at 100 μM
[5] = Table 5, dynamin GTPase, n = 1 or n = 2 as footnoted, NA = not active at 100 μM, read-out: Dynamin 1 IC50
[6] = Table 5, ELISA, read-out: NTD‐PPI IC50
[7] = Table 2, library 2, n = 3, triplicate, '–' = not active at 100 μM, read-out: Dyn 1 IC50
[8] = Table 2, library 2, ELISA, average of duplicate measurements (n=2), read-out: NTD‐PPI IC50
[9] = Table S1, preliminary (n=1) unless otherwise noted, NA = not active, includes IC50 > 150 μM, read-out: Dynamin 1 IC50
[10] = Table 4, library 4, ELISA, average of duplicate measurements (n = 2), read-out: NTD‐PPI IC50
[11] = Table 4, library 4, n = 1 or n = 2 as footnoted, '–' = not active at 100 μM, read-out: Dynamin 1 IC50

IC50 [2, 7]: 66.8 µM | IC50 [3, 8]: 1.5 µM
SMILES: O=C1N=C(NS(=O)(=O)c2cccc3ccccc23)S/C1=C\c1ccc(Cl)cc1Cl [compound 35, (Z)‐N‐(5‐(2,4‐dichlorobenzylidene)‐4‐oxo‐4,5‐dihydrothiazol‐2‐yl)naphthalene‐1‐sulfonamide]

IC50 [2, 7]: 95.1 ± 7.4 µM | IC50 [3, 8]: 4.1 µM
SMILES: O=C1N=C(NS(=O)(=O)c2cccc3ccccc23)S/C1=C\c1ccc(Cl)c(Cl)c1 [compound 36, (Z)‐N‐(5‐(3,4‐dichlorobenzylidene)‐4‐oxo‐4,5‐dihydrothiazol‐2‐yl)naphthalene‐1‐sulfonamide]

IC50 ([2]; Table 3, library 3, n = 1 unless otherwise stated (41, 42: n = 2), '–' = not active at 100 μM, read-out: Dynamin 1 IC50): > 100 µM | IC50 [2, 9]: > 150 µM
SMILES: O=C1N=C(NS(=O)(=O)c2cccc3ccccc23)S/C1=C\C1CCCC1 [compound 41, (Z)‐N‐(5‐(cyclopentylmethylene)‐4‐oxo‐4,5‐dihydrothiazol‐2‐yl)naphthalene‐1‐sulfonamide]
inhibition at 5 µM ([1]; Homo sapiens, U2OS): 11%

IC50 [1, 4]: 31.5 ± 9.2 µM | IC50 [3, 10]: 2.11 µM | IC50 [3, 6]: 2.11 µM
SMILES: O=C1N=C(NS(=O)(=O)c2cccc3ccccc23)S/C1=C\c1ccoc1 [compound 46, (Z)‐N‐(5‐(furan‐3‐ylmethylene)‐4‐oxo‐4,5‐dihydrothiazol‐2‐yl)naphthalene‐1‐sulfonamide]

IC50 [1, 4]: 42.3 ± 25.7 µM
SMILES: O=C1N=C(NS(=O)(=O)c2cccc3ccccc23)S/C1=C\c1ccc(Br)o1 [compound 50, (Z)‐N‐(5‐((5‐bromofuran‐2‐yl)methylene)‐4‐oxo‐4,5‐dihydrothiazol‐2‐yl)naphthalene‐1‐sulfonamide]

IC50 [2, 11]: 100.7 ± 1 µM | NTD‐PPI activity relative to 54 ([3]; ELISA, in words): threefold less active | IC50 [3, 10]: 3.3 µM | IC50 ([3]; read-out: NTD‐PPI IC50 (ELISA)): < 5 µM
SMILES: CN1CCOc2cc(/C=C3\SC(NS(=O)(=O)c4cccc5ccccc45)=NC3=O)ccc21 [compound 53, (Z)‐N‐(5‐((4‐methyl‐3,4‐dihydro‐2H‐benzo[b][1,4]oxazin‐7‐yl)methylene)‐4‐oxo‐4,5‐dihydrothiazol‐2‐yl)naphthalene‐1‐sulfonamide]

IC50 [2, 11]: 69.3 ± 7.1 µM | IC50 ([2]; values quoted in running text (section 2.2), read-out: Dynamin IC50): 69 µM
SMILES: O=C1N=C(NS(=O)(=O)c2cccc3ccccc23)S/C1=C\C1=Cc2ccccc2OC1 [compound 55, (Z)‐N‐(5‐((2H‐chromen‐3‐yl)methylene)‐4‐oxo‐4,5‐dihydrothiazol‐2‐yl)naphthalene‐1‐sulfonamide]
inhibition at 5 µM ([1]; Homo sapiens, U2OS): 0% | inhibition at 50 µM ([1]; Homo sapiens, U2OS, read-out: 2-point CME (% Inhibition) 50 µM): 40%

IC50 [1, 4]: 16.8 ± 7.9 µM | IC50 [2, 11]: ~69.3 µM | IC50 [2, 5]: ~69.3 µM
SMILES: O=C1N=C(NS(=O)(=O)c2cccc3ccccc23)S/C1=C\c1ccc2nsnc2c1 [compound 58, (Z)‐N‐(5‐(benzo[c][1,2,5]thiadiazol‐5‐ylmethylene)‐4‐oxo‐4,5‐dihydrothiazol‐2‐yl)naphthalene‐1‐sulfonamide]
CME activity compared with Pitstop 2 ([1]; U2OS cells): comparable

IC50 [2, 11]: > 100 µM | IC50 [2, 9]: > 150 µM
SMILES: O=C1N=C(NS(=O)(=O)c2cccc3ccccc23)S/C1=C\c1c[nH]c2ccc(Cl)cc12 [compound 66, (Z)‐N‐(5‐((5‐chloro‐1H‐indol‐3‐yl)methylene)‐4‐oxo‐4,5‐dihydrothiazol‐2‐yl)naphthalene‐1‐sulfonamide]
inhibition at 5 µM ([1]; Homo sapiens, U2OS): 2%

Further lines, the molecule ahead of its results:

SMILES: O=C1N=C(NS(=O)(=O)c2cccc3ccccc23)S/C1=C\c1ccc([N+](=O)[O-])cc1 [compound 13, (Z)‐N‐(5‐(4‐nitrobenzylidene)‐4‐oxo‐4,5‐dihydrothiazol‐2‐yl)naphthalene‐1‐sulfonamide]
IC50 [1, 4]: ~14.6 µM | CME activity compared with Pitstop 2 ([1]; U2OS cells): comparable | IC50 ([2]; Table 1, library 1, n = 1 unless noted (19: n = 2), '–' = not active at 150 μM, read-out: Dyn 1 IC50): ~56 µM | IC50 [2, 5]: 55.8 µM | IC50 ([3]; Table 1, library 1, ELISA, average of duplicate measurements (n=2), read-out: NTD‐PPI IC50): 5.2 µM | IC50 [3, 6]: 5.2 µM

SMILES: COc1cc(/C=C2\SC(NS(=O)(=O)c3cccc4ccccc34)=NC2=O)cc(OC)c1OC [compound 33, (Z)‐N‐(4‐oxo‐5‐(3,4,5‐trimethoxybenzylidene)‐4,5‐dihydrothiazol‐2‐yl)naphthalene‐1‐sulfonamide]
IC50 [2, 7]: > 100 µM | IC50 [3, 8]: 14.1 µM

SMILES: O=C1N=C(NS(=O)(=O)c2cccc3ccccc23)S/C1=C\c1cccc(Cl)c1Cl [compound 34, (Z)‐N‐(5‐(2,3‐dichlorobenzylidene)‐4‐oxo‐4,5‐dihydrothiazol‐2‐yl)naphthalene‐1‐sulfonamide]
IC50 [2, 7]: > 100 µM | IC50 [3, 8]: 26.1 µM

SMILES: O=C1N=C(NS(=O)(=O)c2cccc3ccccc23)S/C1=C\c1ccsc1 [compound 44, (Z)‐N‐(4‐oxo‐5‐(thiophen‐3‐ylmethylene)‐4,5‐dihydrothiazol‐2‐yl)naphthalene‐1‐sulfonamide]
IC50 [1, 4]: 36.4 ± 13.7 µM

SMILES: O=C1N=C(NS(=O)(=O)c2cccc3ccccc23)S/C1=C\c1cc[nH]c1 [compound 45, (Z)‐N‐(5‐((1H‐pyrrol‐3‐yl)methylene)‐4‐oxo‐4,5‐dihydrothiazol‐2‐yl)naphthalene‐1‐sulfonamide]
IC50 [1, 4]: ~108 µM | IC50 ([1]; Homo sapiens, U2OS, U2OS cells): > 50 µM | IC50 [3, 10]: 3 µM | IC50 [3, 6]: 3 µM | IC50 ([3]; read-out: NTD‐PPI IC50 (ELISA)): 33 µM

SMILES: O=C1N=C(NS(=O)(=O)c2cccc3ccccc23)S/C1=C\c1ccc(Cl)o1 [compound 49, (Z)‐N‐(5‐((5‐chlorofuran‐2‐yl)methylene)‐4‐oxo‐4,5‐dihydrothiazol‐2‐yl)naphthalene‐1‐sulfonamide]
IC50 [1, 4]: 52.6 ± 9.1 µM | IC50 ([1]; Homo sapiens, U2OS, U2OS cells): > 50 µM | IC50 [3, 10]: 3.31 µM | IC50 [3, 6]: 3.31 µM | IC50 ([3]; read-out: NTD‐PPI IC50 (ELISA)): 3.3 µM

SMILES: O=C1N=C(NS(=O)(=O)c2cccc3ccccc23)S/C1=C\c1ccc(CO)o1 [compound 51, (Z)‐N‐(5‐((5‐(hydroxymethyl)furan‐2‐yl)methylene)‐4‐oxo‐4,5‐dihydrothiazol‐2‐yl)naphthalene‐1‐sulfonamide]
IC50 [1, 4]: ~156 µM | IC50 ([1]; Homo sapiens, U2OS, U2OS cells): > 50 µM | NTD‐PPI activity relative to halogenated furans (49, 50) ([3]; ELISA, in words): threefold less active | IC50 [3, 10]: 6.33 µM | IC50 [3, 6]: 6.33 µM | IC50 ([3]; read-out: NTD‐PPI IC50 (ELISA)): 6.3 µM
